Results reported in US20070099855A1 (priority 2003, published 2007).

Tested on: SARS-associated coronavirus
Experiment: organism not typed
Assay type: cell-based
Conditions: for EC50: Vero
[1] = Vero cell cultures, cytopathic effect scored 72-96 h after infection, mean of eight assays
[2] = Vero cell cultures, tested as in Example 1

Row | Structure (SMILES) | effect on replication of the SARS-associated coronaviruses (Vero cells) | Therap. IndexI (Vero cells) | EC50 [2] [µM] | other results
1 | COc1c(C)c2c(c(O)c1C/C=C(\C)CCC(=O)O)C(=O)OC2 [Mycophenolic acid] | did not affect replication | – | – | EC50 [1]: > 50 µg/mL
2 | COC(=O)[C@@]1(C)CC[C@]2(C)CC[C@]3(C)C(=CC(=O)C4[C@@]5(C)CCC(OC6OC(CO)C(O)C(O)C6OC6OC(CO)C(O)C(O)C6O)C(C)(C)C5CC[C@]43C)C2C1 (some centres unmarked) [Compound 8] | – | 6 | 8 | –
3 | NC(=O)c1ncn([C@@H]2O[C@H](CO)[C@@H](O)[C@H]2O)n1 [Ribavirin] | did not affect replication | – | – | EC50 [1]: > 1000 µg/mL
4 | COC(=O)[C@@]1(C)CC[C@]2(C)CC[C@]3(C)C(=CC(=O)C4[C@@]5(C)CCC(OC6OC(C(=O)NN)C(O)C(O)C6OC6OC(C(=O)NN)C(O)C(O)C6O)C(C)(C)C5CC[C@]43C)C2C1 (some centres unmarked) [Compound 7] | – | 4 | 16 | –
5 | CC1(C)C(OC2OC(C(=O)O)C(O)C(O)C2OC2OC(C(=O)O)C(O)C(O)C2O)CC[C@@]2(C)C1CC[C@]1(C)C2C(=O)C=C2C3C[C@@](C)(C(=O)O)CC[C@]3(C)CC[C@]21C.N (some centres unmarked) [Glycyrrhizin Monoammonium Salt] | – | 2 | 327 | –
6 | NC(=O)c1[nH]nc([C@@H]2O[C@H](CO)[C@@H](O)[C@H]2O)c1O [Pyrazofurin] | inhibited replication of SARS-CV at non-toxic doses | – | – | Selectivity Index (ratio CC50/EC50, Vero cells): 12
7 | O=c1cnn([C@@H]2O[C@H](CO)[C@@H](O)[C@H]2O)c(=O)[nH]1 [Compound 6-azauridine, 6-azauridine] | inhibited replication of SARS-CV at non-toxic doses | – | – | Selectivity Index (ratio CC50/EC50, Vero cells): 6; Selectivity Index (ratio CC50/EC50, Vero cells, listed as 6-azuridine): 5
8 | CC1(C)C(OC2OC(C(=O)O)C(O)C(O)C2OC2OC(C(=O)O)C(O)C(O)C2O)CC[C@]2(C)[C@H]3C(=O)C=C4[C@@H]5C[C@@](C)(C(=O)O)CC[C@]5(C)CC[C@@]4(C)[C@]3(C)CC[C@@H]12 (stereo partly drawn) [Glycyrrhizin, (3-beta,20-beta)-20-Carboxy-11-oxo-30-norolean-12-en-3-yl 2-O-beta-D-glucopyranuronosyl-alpha-D-glucopyranosiduronic acid] | – | – | – | EC50 (compound added after virus adsorption, Vero cells): 600 µg/mL; EC50 (compound added during and after virus adsorption, Vero cells): 300 µg/mL; EC50 (compound added during virus adsorption, Vero cells): 2400 µg/mL; Selectivity Index (after virus adsorption, CC50/EC50): >33; Selectivity Index (during and after virus adsorption, CC50/EC50): >67
